Data on eight compounds can be found in US5710150A, “Benzazepine derivative, pharmaceutical composition thereof, and intermediate thereof” (Yamanouchi Pharmaceutical Co., Ltd., priority 1993, dated 1998).

Experiment [1] deals with arginine vasopressin V2 receptor (Oryctolagus cuniculus, UniProt G1TA00). Briefly: V2 receptor binding assay ([3H]-Arg-vasopressin, rabbit renal medulla membrane). Conditions: rabbit renal medulla membrane, [3H]-Arg-vasopressin 2 nM.
Experiment [2] addresses T1, arginine vasopressin V1 receptor (Rattus norvegicus, UniProt P30560).
T1 construct: A rat liver membrane sample was prepared; from tissue; host or cells: rat liver membranes
Nature of the experiment: V1 receptor binding assay ([3H]-Arg-vasopressin, rat liver membrane). Conditions: for Ki: read-out: Binding activity on arginine vasopressin V1 receptor (pKi) (converted). As to the method:
(1) V1 receptor binding assay
A rat liver membrane sample was prepared in accordance with the method of Nakamura et al. (J. Biol. Chem., 258, 9283 (1983)), and [^3 H]-Arg-vasopressin (2 nM, specific activity=75.8 Ci/mmol), 70 μg of the membrane sample and each drug to be tested (10^-8 to 10^-4 M) were incubated at 30° C. for 30 minutes in 250 μl of 100 mM Tris-HCl buffer (pH=8.0) containing 5 mM of magnesium chloride, 1 mM of ethylenediaminetetraacetic acid (EDTA) and 0.1% of bovine serum albumin (BSA). Thereafter, the incubation solution was sucked off using a cell harvester and free ligand and excess buffer were removed by passing the reaction mixture through a glass filter (GF/B), thereby trapping receptor-bound labeled ligand on the glass filter. The glass filter was taken out, thoroughly dried and then mixed with a liquid scintillation cocktail, and the amount of the membrane-bound [^3 H]-vasopressin was measured using a liquid scintillation counter to calculate the inhibition ratio by the following formula. [formula] C1 : amount of [^3 H]-vasopressin bound to the membrane in the coexistence of known amount of each drug to be tested and [^3 H]-vasopressin
C0 : amount of [^3 H]-vasopressin bound to the membrane when the drug to be tested was not added
B1 : amount of [^3 H]-vasopressin bound to the membrane in the presence of excess vasopressin (10^-6 M)
[formula] [L]: concentration of radioactive ligand KD: dissociation constant calculated from Scatchard plot
Negative logarithm of the thus calculated Ki value was used as pKi value.

[3] abbreviates: rat liver membrane, [3H]-Arg-vasopressin 2 nM, 30° C., 30 minutes, pH 8.0.

Structures are written as SMILES. pKi: −log10 of the molar value. Counter-ions that a name gives are not always drawn. Like-named read-outs stand apart in the source and are kept apart here.

T1 sequence (P30560 whole entry): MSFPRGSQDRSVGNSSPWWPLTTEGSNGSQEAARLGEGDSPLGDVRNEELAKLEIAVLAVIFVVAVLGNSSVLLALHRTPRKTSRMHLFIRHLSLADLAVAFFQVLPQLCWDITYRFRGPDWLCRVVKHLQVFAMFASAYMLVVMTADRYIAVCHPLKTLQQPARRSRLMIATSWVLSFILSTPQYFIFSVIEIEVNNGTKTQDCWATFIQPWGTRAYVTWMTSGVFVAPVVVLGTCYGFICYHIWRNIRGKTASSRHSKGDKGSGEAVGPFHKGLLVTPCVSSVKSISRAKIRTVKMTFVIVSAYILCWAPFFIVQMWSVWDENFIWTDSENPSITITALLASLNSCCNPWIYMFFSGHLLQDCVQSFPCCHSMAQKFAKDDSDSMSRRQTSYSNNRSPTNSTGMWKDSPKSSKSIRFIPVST
Chain of arginine vasopressin V2 receptor (G1TA00 78-446): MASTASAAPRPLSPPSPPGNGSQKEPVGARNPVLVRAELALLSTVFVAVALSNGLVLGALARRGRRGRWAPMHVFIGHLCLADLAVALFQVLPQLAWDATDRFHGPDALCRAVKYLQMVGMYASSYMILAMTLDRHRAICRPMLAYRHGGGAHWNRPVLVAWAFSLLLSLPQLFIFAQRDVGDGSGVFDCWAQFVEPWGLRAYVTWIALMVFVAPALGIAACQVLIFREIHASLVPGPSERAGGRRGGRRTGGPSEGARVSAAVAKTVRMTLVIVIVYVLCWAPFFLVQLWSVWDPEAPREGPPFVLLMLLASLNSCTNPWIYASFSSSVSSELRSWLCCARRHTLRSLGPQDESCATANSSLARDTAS

Turning to `CNC(=O)/C=C1/c2ccccc2N(C(=O)c2ccc(NC(=O)c3ccccc3-c3ccccc3)cc2)CCC1(F)F` [Example 122, (Z)-4'-[[4,4-difluoro-5-(N-methylcarbamoylmethylene)-2,3,4,5-tetrahydro-1H-1-benzazepin-1-yl]carbonyl]-2-phenylbenzanilide], the “Binding activity on arginine vasopressin V2 receptor (pKi)” value in experiment [1] is 8.94. The Ki in experiment [2] (setting [3]) is 0.355 nM.
In the case of `CN1CCN(C/C=C2/c3ccccc3N(C(=O)c3ccc(NC(=O)c4ccccc4-c4ccccc4)cc3)CCC2(F)F)CC1.Cl.Cl` [Example 80, (Z)-4'-[[4,4-difluoro-5-[2-(4-methyl-1-piperazinyl)ethylidene]-2,3,4,5-tetrahydro-1H-1-benzazepin-1-yl]carbonyl]-2-phenylbenzanilide dihydrochloride], the “Binding activity on arginine vasopressin V2 receptor (pKi)” value in experiment [1] was found to be 8.50. In experiment [2] (setting [3]), the Ki was 0.363 nM.
Consider `O=C(/C=C1/c2ccccc2N(C(=O)c2ccc(NC(=O)c3ccccc3-c3ccccc3)cc2)CCC1(F)F)NCCO` [Example 134, (Z)-4'-[[4,4-difluoro-5-[N-(2-hydroxyethyl)carbamoylmethylene]-4,4-difluoro-2,3,4,5-tetrahydro-1H-1-benzazepin-1-yl]carbonyl]-2-phenylbenzanilide], for which the “Binding activity on arginine vasopressin V2 receptor (pKi)” value in experiment [1] was determined as 8.94. Besides, in experiment [2] (setting [3]), the “Binding activity on arginine vasopressin V1 receptor (pKi)” value is 9.50.
Consider `CN1CCC(N(C)C(=O)/C=C2/c3ccccc3N(C(=O)c3ccc(NC(=O)c4ccccc4-c4ccccc4)cc3)CCC2(F)F)CC1` [Example 84, (Z)-4'-[[4,4-difluoro-5-[[N-methyl-N-(1-methyl-4-piperidyl)carbamoyl]methylene]-2,3,4,5-tetrahydro-1H-1-benzazepin-1-yl]carbonyl]-2-phenylbenzanilidehydrochloride], for which the Ki in experiment [2] (setting [3]) is 0.102 nM.
With `CCc1nccn1-c1ccccc1C(=O)Nc1ccc(C(=O)N2CCC(F)(F)/C(=C\C(=O)NC3CC3)c3ccccc32)cc1` [Example 105, (Z)-4'-[[5-[(N-cyclopropylcarbamoyl)methylene]-4,4-difluoro-2,3,4,5-tetrahydro-1H-1-benzazepin-1-yl]carbonyl]-2-(2-ethyl-1H-imidazol-1-yl) benzanilide], the “Binding activity on arginine vasopressin V2 receptor (pKi)” value in experiment [1] was 6.81. Further, the “V1 selectivity (in words)” value in experiment [2] (V1 versus V2 receptor binding) is on record as “excellent in V1 selectivity”. Also, in experiment [2] (setting [3]), the Ki was 0.339 nM. For the same compound, the “V1 receptor antagonism compared with OPC-21268 (in words)” value in experiment [2] (versus OPC-21268) is listed as “markedly stronger V1 receptor antagonism than that of OPC-21268”.
Turning to `Cc1cccc(-c2ccccc2C(=O)Nc2ccc(C(=O)N3CCC(F)(F)/C(=C\C(=O)N4CCN(C)CC4)c4ccccc43)cc2)c1.Cl` [Example 19, (Z)-4'-[[4,4-difluoro-5-(4-methyl-1-piperazinyl)carbonylmethylene-2,3,4,5-tetrahydro-1H-1-benzazepin-1-yl]carbonyl]-2-(3-methylphenyl)benzanilide hydrochloride], in experiment [1], the “Binding activity on arginine vasopressin V2 receptor (pKi)” value turned out to be 8.84. For the same compound, in experiment [2] (setting [3]), the Ki was 2.63 nM.
The corresponding values for `O=C(/C=C1/c2ccccc2N(C(=O)c2ccc(NC(=O)c3ccccc3-c3ccccc3)cc2)CCC1(F)F)NCc1ccccn1` [Example 14, (Z)-4'-[[4,4-difluoro-5-[N-(2-pyridylmethyl)carbonylmethylene]-2,3,4,5-tetrahydro-1H-1-benzazepin-1-yl]carbonyl]-2-phenylbenzanilide hydrochloride] are 9.39 and 1.23 nM.
In the case of `Cc1ccsc1C(=O)Nc1ccc(C(=O)N2CCC(F)(F)/C(=C\C(=O)N3CCC(N(C)C)CC3)c3ccccc32)cc1` [Example 111, (Z)-N-[4-[[4,4-difluoro-5-[[(4-dimethylaminopiperidino)carbonyl]methylene]-2,3,4,5-tetrahydro-1H-1-benzazepin-1-yl]carbonyl]phenyl]-3-methylthiophene-2-carboxyamide hydrochloride], the “Binding activity on arginine vasopressin V2 receptor (pKi)” value in experiment [1] stood at 7.79. Also, the pKi in experiment [2] was 9.25.
